Experimental data: patent US20040086995A1, “Beta1, 4-N-Acetylgalactosaminyltransferases, nucleic acids and methods of use thereof” (priority 2002, published 2004)

Experiments:
SH-Ceβ4GalNAcT [1] = molecular target: T1, SH-Ceβ4GalNAcT (Caenorhabditis elegans, UniProt Q9GUM2); experiment: β4GalNAcT assay, acceptor specificity; assay type: biochemical, C. elegans
T1 construct: the catalytic domain of the Ceβ4GalNAcT (beginning at K34, the first amino acid after the transmembrane domain); signal peptide (from vector pcDNA3.1(+)-TH) (N); made in house; host or cells: CHO-Lec8 (and CHO-Lec2) cells, stably transfected; enzyme captured from the culture medium on HPC4-UltraLink beads
T1 sequence (Q9GUM2 30-383 limits assumed): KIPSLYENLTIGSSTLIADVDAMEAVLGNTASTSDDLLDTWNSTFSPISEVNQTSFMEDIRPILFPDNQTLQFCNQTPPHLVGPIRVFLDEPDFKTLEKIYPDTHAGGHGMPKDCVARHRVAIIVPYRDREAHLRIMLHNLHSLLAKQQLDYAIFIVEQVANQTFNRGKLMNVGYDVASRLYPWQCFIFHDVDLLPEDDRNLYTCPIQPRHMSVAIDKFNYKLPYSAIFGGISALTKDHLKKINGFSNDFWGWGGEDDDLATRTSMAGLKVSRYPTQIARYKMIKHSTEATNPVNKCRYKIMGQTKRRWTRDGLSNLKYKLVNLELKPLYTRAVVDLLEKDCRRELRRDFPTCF
Description: (§1) Purification of SH-C.E.β4GalNAcT—Medium containing SH-Ceβ4GalNAcT was centrifuged at 1,500×g for 5 min to remove cellular debris, and then incubated with HPC4-UltraLink beads (5 mg HPC4 antibody per ml of beads; 0.1 ml of beads per ml of medium) for one hour at room temperature on a rotating platform. The beads were collected by centrifugation at 600×g for 3 min, and washed three times with 10 ml of 100 mM sodium cacodylate pH 7.0, 2 mM CaCl2. The beads were then resuspended in the same buffer with the addition of 20 mM MnCl2, and used as the enzyme source. For Western blot analysis, the bound material was released by incubating the beads in a buffer of 50 mM sodium cacodylate pH 7.0, 20 mM EDTA for 10 min at room temperature, then collecting the supernatant.
β4GalNAcT assays—Standard assays were performed essentially as described previously (40) in a […] reaction mixture containing […] sodium cacodylate pH 7.2, 12.5 nmol UDP-[^3H]GalNAc (2.5 Ci/mol), […] MnCl2, […] ATP, […] Triton X-100, […] beads and acceptor substrate, containing 25 nmol of terminal GlcNAc at the non-reducing end unless otherwise indicated. Control assays lacking the acceptor substrate were carried out to correct for incorporation into endogenous acceptors, and all assays were carried out in duplicate. […] The isolated products were assayed for incorporation of radioactivity by liquid scintillation.

SH-Ceβ4GalNAcT [2] = molecular target: T1, SH-Ceβ4GalNAcT; experiment: β4GalNAcT assay, effect of α-lactalbumin on acceptor use; assay type: biochemical, C. elegans; details: for Relative activity (%): UDPGalNAc 0.5 mM, GlcNAc 1 mM or Glc 30 mM
Description: as §1
(§2) β4GalNAcT assays—Standard assays were performed essentially as described previously (40) in a […] reaction mixture containing […] sodium cacodylate pH 7.2, 12.5 nmol UDP-[^3H]GalNAc (2.5 Ci/mol), […] MnCl2, […] ATP, […] Triton X-100, […] beads and acceptor substrate, containing 25 nmol of terminal GlcNAc at the non-reducing end unless otherwise indicated. Control assays lacking the acceptor substrate were carried out to correct for incorporation into endogenous acceptors, and all assays were carried out in duplicate. After incubation at 37° C. for 180 min the reaction was stopped. When oligosaccharides or glycopeptides were the acceptor, the labeled product was separated from unincorporated label by chromatography on a 1-ml column of Dowex 1-X8 (Cl^−-form) according to Easton et al., (44). When oligosaccharide acceptors with hydrophobic aglycon (pNP) were used as the acceptor, the product was isolated using Sep-pak C-18 cartridges (Waters) as described (45). The isolated products were assayed for incorporation of radioactivity by liquid scintillation.

SH-Ceβ4GalNAcT [3] = molecular target: T1, SH-Ceβ4GalNAcT; experiment: β4GalNAcT assay, sugar nucleotide (donor) specificity; assay type: biochemical, C. elegans; details: for Relative activity (%): acceptor GlcNAcβ-S-pNP 1 mM, donor 0.5 mM, enzyme on HPC4-beads, 100% = UDP-GalNAc
Description: as §1, §2

[4] = molecular target: SH-Ceβ4GalNAcT (soluble, HPC4-epitope tagged form of C. elegans UDPGalNAc:GlcNAcβ-R β1,4-N-acetylgalactosaminyltransferase, encoded by Y73E7A.7) (C. elegans); experiment: cell-based or functional assay
Sequence of SH-Ceβ4GalNAcT (soluble, HPC4-epitope tagged form of C. elegans UDPGalNAc:GlcNAcβ-R β1,4-N-acetylgalactosaminyltransferase, encoded by Y73E7A.7) (C. elegans) (Q9GUM2 34-383): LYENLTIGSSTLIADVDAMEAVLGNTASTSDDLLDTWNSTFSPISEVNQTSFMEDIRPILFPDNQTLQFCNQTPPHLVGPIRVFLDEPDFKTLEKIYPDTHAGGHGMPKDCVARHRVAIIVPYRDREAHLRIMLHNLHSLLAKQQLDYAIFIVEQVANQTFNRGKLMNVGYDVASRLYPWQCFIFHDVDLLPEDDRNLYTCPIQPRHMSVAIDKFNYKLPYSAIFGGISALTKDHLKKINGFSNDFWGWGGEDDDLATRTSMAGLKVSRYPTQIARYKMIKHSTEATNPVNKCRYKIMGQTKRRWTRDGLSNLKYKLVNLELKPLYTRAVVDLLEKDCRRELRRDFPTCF

Molecule | Relative activity (%) (SH-Ceβ4GalNAcT [2]; with a-Lactalbumin 5 mg/ml) | Relative activity (%) (SH-Ceβ4GalNAcT [2]; without a-Lactalbumin) | utilization as nucleotide-sugar donor (SH-Ceβ4GalNAcT [3]) | Relative activity (%) (SH-Ceβ4GalNAcT [3]) | further results
CC(=O)N[C@@H]1[C@@H](O)[C@H](O)[C@@H](CO)O[C@H]1O [Acceptor 9, GlcNAc] | 40% | 100% | – | – | utilization as acceptor substrate (SH-Ceβ4GalNAcT [1]): efficiently utilized
OC[C@H]1OC(O)[C@H](O)[C@@H](O)[C@@H]1O (stereo partly drawn) [Glc] | 6% | 3% | – | – | –
CC(=O)N[C@H]1[C@@H](OP(=O)(O)OP(=O)(O)OC[C@H]2O[C@@H](n3ccc(=O)[nH]c3=O)[C@H](O)[C@@H]2O)O[C@H](CO)[C@H](O)[C@@H]1O [UDP-GalNAc] | – | – | efficiently utilized | 100% | –
CC(=O)N[C@H]1[C@@H](OP(=O)(O)OP(=O)(O)OC[C@H]2O[C@@H](n3ccc(=O)[nH]c3=O)[C@H](O)[C@@H]2O)O[C@H](CO)[C@@H](O)[C@@H]1O [UDP-GlcNAc] | – | – | did not significantly utilize | 0.7% | –
α-lactalbumin | – | – | – | – | Relative activity (%) of SH-Ceβ4GalNAcT with Glc (30 mM) as acceptor in the presence of a-lactalbumin (5 mg/ml); 3 without it [4]: 6%; Relative activity (%) of SH-Ceβ4GalNAcT with GlcNAc (1 mM) as acceptor in the presence of a-lactalbumin (5 mg/ml); 100 without it [4]: 40%
a-lactalbumin: modifier protein expressed in lactating mammary glands, associates with β4GalT I and switches its acceptor specificity (protein, UniProt P00709 20-142, looked up) Alpha-lactalbumin: KQFTKCELSQLLKDIDGYGGIALPELICTMFHTSGYDTQAIVENNESTEYGLFQISNKLWCKSSQVPQSRNICDISCDKFLDDDITDDIMCAKKILDIKGIDYWLAHKALCTEKLEQWLCEKL | – | – | – | – | effect of α-lactalbumin on acceptor specificity (SH-Ceβ4GalNAcT [2]): did not induce SH-Ceβ4GalNAcT to utilize Glc as an acceptor instead of GlcNAc
